Reference: patent publication US20250352520A1, “USE OF DEXPRAMIPEXOLE FOR THE TREATMENT OF EOSINOPHILIC COPD” (Areteia Therapeutics, Inc., priority 2024, published 2025)

Conditions: Week 8; >=50% AEC reduction at Week 16

CCCN[C@@H]1CCc2nc(N)sc2C1 [Dexpramipexole, (6R)-2-amino-4,5,6,7-tetrahydro-6-(propylamino)benzothiazole]
Pre-BD FEF25-75 % change from baseline, Max: 38% | Pre-BD FEF25-75 % change from baseline, Mean ± SD: 10.2 ± 27.88% | Pre-BD FEF25-75 % change from baseline, Median: 9.5% | Pre-BD FEF25-75 % change from baseline, Min: −17% | Pre-BD FEF25-75 % change from baseline, Q1: −17% | Pre-BD FEF25-75 % change from baseline, Q3: 38% | Pre-BD FEF25-75 Observed, Max: 1010 mL/s | Pre-BD FEF25-75 Observed, Mean ± SD: 666.7 ± 398.29 mL/s | Pre-BD FEF25-75 Observed, Median: 760.0 mL/s | Pre-BD FEF25-75 Observed, Min: 230 mL/s | Pre-BD FEF25-75 Observed, Q1: 230 mL/s | Pre-BD FEF25-75 Observed, Q3: 1010 mL/s | Pre-BD FEF25-75 change from baseline, Max: 280 mL/s | Pre-BD FEF25-75 change from baseline, Mean ± SD: 46.7 ± 221.21 mL/s | Pre-BD FEF25-75 change from baseline, Median: 20.0 mL/s | Pre-BD FEF25-75 change from baseline, Min: -160 mL/s | Pre-BD FEF25-75 change from baseline, Q1: -160 mL/s | Pre-BD FEF25-75 change from baseline, Q3: 280 mL/s | Pre-BD FEV1 % change from baseline, Max: 53% | Pre-BD FEV1 % change from baseline, Mean ± SD: 18.7 ± 30.56% | Pre-BD FEV1 % change from baseline, Median: 8.3% | Pre-BD FEV1 % change from baseline, Min: −5% | Pre-BD FEV1 % change from baseline, Q1: −5% | Pre-BD FEV1 % change from baseline, Q3: 53% | Pre-BD FEV1 Observed, Max: 1990 mL | Pre-BD FEV1 Observed, Mean ± SD: 1453.3 ± 616.47 mL | Pre-BD FEV1 Observed, Median: 1590.0 mL | Pre-BD FEV1 Observed, Min: 780 mL | Pre-BD FEV1 Observed, Q1: 780 mL | Pre-BD FEV1 Observed, Q3: 1990 mL | Pre-BD FEV1 change from baseline, Max: 690 mL | Pre-BD FEV1 change from baseline, Mean ± SD: 220.0 ± 413.88 mL | Pre-BD FEV1 change from baseline, Median: 60.0 mL | Pre-BD FEV1 change from baseline, Min: -90 mL | Pre-BD FEV1 change from baseline, Q1: -90 mL | Pre-BD FEV1 change from baseline, Q3: 690 mL | Pre-BD FVC % change from baseline, Max: 24% | Pre-BD FVC % change from baseline, Mean ± SD: 8.8 ± 13.54% | Pre-BD FVC % change from baseline, Median: 3.3% | Pre-BD FVC % change from baseline, Min: −1% | Pre-BD FVC % change from baseline, Q1: −1% | Pre-BD FVC % change from baseline, Q3: 24% | Pre-BD FVC Observed, Max: 3130 mL | Pre-BD FVC Observed, Mean ± SD: 2626.7 ± 477.53 mL | Pre-BD FVC Observed, Median: 2570.0 mL | Pre-BD FVC Observed, Min: 2180 mL | Pre-BD FVC Observed, Q1: 2180 mL | Pre-BD FVC Observed, Q3: 3130 mL | Pre-BD FVC change from baseline, Max: 610 mL | Pre-BD FVC change from baseline, Mean ± SD: 216.7 ± 344.29 mL | Pre-BD FVC change from baseline, Median: 70.0 mL | Pre-BD FVC change from baseline, Min: -30 mL | Pre-BD FVC change from baseline, Q1: -30 mL | Pre-BD FVC change from baseline, Q3: 610 mL | Pre-BD Peak Flow % change from baseline, Max: 90% | Pre-BD Peak Flow % change from baseline, Mean ± SD: 25.2 ± 58.36% | Pre-BD Peak Flow % change from baseline, Median: 9.6% | Pre-BD Peak Flow % change from baseline, Min: −24% | Pre-BD Peak Flow % change from baseline, Q1: −24% | Pre-BD Peak Flow % change from baseline, Q3: 90% | Pre-BD Peak Flow Observed, Max: 298 L/min | Pre-BD Peak Flow Observed, Mean ± SD: 197.7 ± 87.79 L/min | Pre-BD Peak Flow Observed, Median: 160.0 L/min | Pre-BD Peak Flow Observed, Min: 135 L/min | Pre-BD Peak Flow Observed, Q1: 135 L/min | Pre-BD Peak Flow Observed, Q3: 298 L/min | Pre-BD Peak Flow change from baseline, Max: 141 L/min | Pre-BD Peak Flow change from baseline, Mean ± SD: 37.7 ± 93.77 L/min | Pre-BD Peak Flow change from baseline, Median: 14.0 L/min | Pre-BD Peak Flow change from baseline, Min: -42 L/min | Pre-BD Peak Flow change from baseline, Q1: -42 L/min | Pre-BD Peak Flow change from baseline, Q3: 141 L/min
